pIC50: −log10 of the molar value.

The nature of this assay: Activity against adenosine diphosphate (ADP) induced platelet aggregation.

As for `CCCCCCOc1c(OC)cc(CCCCc2scnc2C)cc1OC` [5-[4-(4-Hexyloxy-3,5-dimethoxy-phenyl)-butyl]-4-methyl-thiazole], the pIC50 (commonly the IC50 on a negative log10 scale, so that one unit is a factor of ten) is 4.87. `CCCCCCCCCCOc1c(OC)cc(C(=O)OCC[N+](C)(C)C)cc1OC` [[2-(4-Decyloxy-3,5-dimethoxy-benzoyloxy)-ethyl]-trimethyl-ammonium; iodide]: the pIC50 is 5.70.

Turning to `CCCCCCOc1c(OC)cc(C(=O)OCc2ccccc2C[N+](C)(C)C)cc1OC` [[2-(4-Hexyloxy-3,5-dimethoxy-benzoyloxymethyl)-benzyl]-trimethyl-ammonium; iodide], the pIC50 is 4.80. As for `CCCCCCCCOc1c(OC)cc(C(=O)OCCCC[N+](C)(C)C)cc1OC` [[4-(3,5-Dimethoxy-4-octyloxy-benzoyloxy)-butyl]-trimethyl-ammonium; iodide], the pIC50 is 4.86.

`CCCCCCOc1c(Cl)cc(C(=O)OCCCC[N+](C)(C)C)cc1OC` [[4-(3-Chloro-4-hexyloxy-5-methoxy-benzoyloxy)-butyl]-trimethyl-ammonium; iodide] had a pIC50 of 5.02. With `CCCCCCCCCCCCCCCCOc1c(OC)cc(C(=O)OCCCC[N+](C)(C)C)cc1OC` [[4-(4-Hexadecyloxy-3,5-dimethoxy-benzoyloxy)-butyl]-trimethyl-ammonium; iodide] the figure was 5.54. On to `CCCCCCOc1c(C)cc(C(=O)OCCCC[N+](C)(C)C)cc1C` [[4-(4-Hexyloxy-3,5-dimethyl-benzoyloxy)-butyl]-trimethyl-ammonium; iodide], for which the pIC50 is 4.92.

`CCCCCCOc1ccc(C(=O)OCCCC[N+](C)(C)C)cc1` [[4-(4-Hexyloxy-benzoyloxy)-butyl]-trimethyl-ammonium; iodide]: the pIC50 is 4.65.

The record behind these values is BindingDB's records for doi:10.1021/jm00012a012 (Wellcome Research Laboratories, 1995).
